Reference: publication PMC4278362 (Bioorganic & medicinal chemistry, 2014)
Values after ≈ are worked out from the molar mass of the structure shown. Where two headings read alike, the source gives them in different places.

Key:
B. anthracis Sterne [1] = conditions: cited from earlier work
B anthracis DHFR = B anthracis DHFR (Bacillus anthracis, UniProt Q81R22); test: biochemical; conditions: Ki ± SEM B anthracis DHFR
B. anthracis Sterne [2] = test: microbe, parasite or virus in culture; format: cell-based, Bacillus anthracis; conditions: for MIC: Bacillus anthracis, read-out: MIC B. anthracis Sterne

Chain of B anthracis DHFR (Q81R22 1-162): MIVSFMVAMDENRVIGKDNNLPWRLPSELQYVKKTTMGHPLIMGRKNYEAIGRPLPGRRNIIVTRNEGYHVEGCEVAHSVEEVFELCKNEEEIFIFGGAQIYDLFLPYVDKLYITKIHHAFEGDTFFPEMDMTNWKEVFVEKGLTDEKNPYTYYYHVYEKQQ

COc1cc(Cc2cnc(N)nc2N)cc(OC)c1OC [TMP, Trimethoprim]
MIC B. anthracis Sterne (B. anthracis Sterne [1]): > 2048 µg/mL

CCCC1c2ccccc2C=NN1C(=O)/C=C/c1cc(Cc2cnc(N)nc2N)cc(OCc2ccc(C(F)(F)F)cc2)c1OC (racemic) [Compound 34, (±)-(E)-3-{5-[(2,4-Diamino-5-pyrimidinyl)methyl]-2-methoxy-3-[(4-(trifluoromethyl)benzyl)oxy]phenyl}-1-(1-propyl-2(1H)-phthalazinyl)-2-propen-1-one]
Ki (B anthracis DHFR): > 2.2 µM

CCCC1c2ccccc2C=NN1C(=O)/C=C/c1cc(Cc2cnc(N)nc2N)cc(OC(=O)c2ccccc2)c1OC (racemic) [Compound 29, (±)-(E)-5-[(2,4-Diamino-5-pyrimidinyl)methyl]-2-methoxy-3-[3-oxo-3-(1-propyl-2(1H)-phthalazinyl)-1-propen-1-yl]phenyl benzoate]
MIC B. anthracis Sterne (B. anthracis Sterne [2]): 4 to 16 µg/mL
MIC (B. anthracis Sterne [2]): 2 to 16 µg/mL (≈ 3.47 to 27.7 µM)

CCOc1cc(Cc2cnc(N)nc2N)cc(/C=C/C(=O)N2N=Cc3ccccc3C2C=C(C)C)c1OCC (racemic) [Compound 19b, (±)-(E)-3-{5-[(2,4-Diamino-5-pyrimidinyl)methyl]-2,3-diethoxyphenyl}-1-(1-isobutenyl-2(1H)-phthalazinyl)-2-propen-1-one]
MIC (B. anthracis Sterne [2]): 1 to 2 µg/mL (≈ 1.9 to 3.8 µM)
